The results in this text go back to BindingDB's records for doi:10.1016/j.bmcl.2017.09.009 (St. John'S University, 2017).

“And” between values parts separate entries of the source, which are not always exact repeats. Equal values may be shown once.

Data set [1] in a line: Inhibition of ABCG2 in human H460/MX20 cells assessed as potentiation of mitoxantrone induced antiproliferative activity by measuring mitoxantrone IC50 at 1 uM preincubated for 2 hrs followed by mitoxantrone addition measured after 72 hrs by MTT assay (Rvb = 6.161 +/- 0.172 microM). (Tetrazolium dyes change colour on reduction, which living cells bring about.)
Data set [2] is described as follows: Inhibition of ABCG2 in human H460/MX20 cells assessed as potentiation of mitoxantrone induced antiproliferative activity by measuring mitoxantrone IC50 at 10 uM preincubated for 2 hrs followed by mitoxantrone addition measured after 72 hrs by MTT assay (Rvb = 6.161 +/- 0.172 microM).
Data set [3] in a line: Inhibition of ABCG2 in human H460/MX20 cells assessed as potentiation of mitoxantrone induced antiproliferative activity by measuring mitoxantrone IC50 at 3 uM preincubated for 2 hrs followed by mitoxantrone addition measured after 72 hrs by MTT assay (Rvb = 6.161 +/- 0.172 microM).
Data set [4] addresses T1, Broad substrate specificity ATP-binding cassette transporter ABCG2 (Homo sapiens, UniProt Q9UNQ0).
T1 sequence (Q9UNQ0 whole entry): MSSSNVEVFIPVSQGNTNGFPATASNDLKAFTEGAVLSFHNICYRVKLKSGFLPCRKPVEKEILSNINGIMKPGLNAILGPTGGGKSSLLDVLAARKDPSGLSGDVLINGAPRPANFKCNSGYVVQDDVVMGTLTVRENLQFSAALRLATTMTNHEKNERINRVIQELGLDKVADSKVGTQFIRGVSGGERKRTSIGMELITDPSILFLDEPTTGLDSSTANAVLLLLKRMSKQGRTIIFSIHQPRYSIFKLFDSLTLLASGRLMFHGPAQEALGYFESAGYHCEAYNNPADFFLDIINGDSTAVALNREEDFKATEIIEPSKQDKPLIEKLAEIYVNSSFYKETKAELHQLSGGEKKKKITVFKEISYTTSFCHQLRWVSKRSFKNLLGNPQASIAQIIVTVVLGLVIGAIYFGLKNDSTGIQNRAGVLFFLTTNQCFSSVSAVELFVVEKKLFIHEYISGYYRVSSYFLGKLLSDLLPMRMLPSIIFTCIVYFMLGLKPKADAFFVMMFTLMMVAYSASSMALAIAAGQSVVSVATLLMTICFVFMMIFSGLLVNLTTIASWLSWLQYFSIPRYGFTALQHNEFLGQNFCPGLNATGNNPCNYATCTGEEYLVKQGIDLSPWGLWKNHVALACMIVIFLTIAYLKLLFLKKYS
Briefly: (§1) Inhibition of ABCG2 in human H460/MX20 cells assessed as potentiation of mitoxantrone induced antiproliferative activity by measuring mitoxantrone IC50 at 10 uM preincubated for 2 hrs followed by mitoxantrone addition measured after 72 hrs by MTT assay (Rvb = 6.161 +/- 0.172 microM).

The target in data set [5] is T1, Broad substrate specificity ATP-binding cassette transporter ABCG2. As to the kind of experiment: Inhibition of ABCG2 in human H460/MX20 cells assessed as potentiation of mitoxantrone induced antiproliferative activity by measuring mitoxantrone IC50 at 3 uM preincubated for 2 hrs followed by mitoxantrone addition measured after 72 hrs by MTT assay (Rvb = 6.161 +/- 0.172 microM).

Data set [6] can be described thus: Inhibition of ABCG2 in human H460/MX20 cells assessed as potentiation of mitoxantrone induced antiproliferative activity by measuring mitoxantrone IC50 at 3 uM preincubated for 2 hrs followed by mitoxantrone addition measured after 72 hrs by MTT assay (Rvb = 6.161 +/- 0.172 microM). The source holds these as a separate data set.
Data set [7] concerns the target T1, Broad substrate specificity ATP-binding cassette transporter ABCG2. Briefly: ChEBML_1696291. The procedure:
as §1

For orientation: IC50 means the concentration at which inhibition is half-maximal. With `COc1cccc(-n2nnc(-c3ccccc3NC(=O)Nc3ccc(N)cc3)n2)c1`, the IC50 in data set [1] stood at 838 nM; in data set [2], 379 nM.
For `CCCc1ccc(NC(=O)c2ccccc2NC(=O)Nc2ccc([N+](=O)[O-])cc2)cc1`, the IC50 in data set [1] was 622 nM; in data set [3], 482 nM.
For `COc1cccc(-n2nnc(-c3ccccc3NC(=O)c3ccccc3[N+](=O)[O-])n2)c1`, the IC50 in data set [4] is 1100 nM.
For the molecule `COc1cccc(-n2nnc(-c3ccccc3NC(=O)Nc3ccccc3[N+](=O)[O-])n2)c1`, the IC50 in data set [3] was determined as 978 nM; in data set [2] it was 882 nM.
On to `COc1cccc(-n2nnc(-c3ccccc3NC(=O)c3ccc(NC(=O)CBr)cc3)n2)c1`, for which the IC50 in data set [2] came to 283 nM; in data set [5], 446 nM.
With `COc1ccc(-n2nnc(-c3ccccc3NC(=O)c3ccc([N+](=O)[O-])cc3)n2)cc1`, the IC50 in data set [1] came out at 587 nM; in data set [2], 378 nM; in data set [6] it was 535 nM.
As for `CCCc1ccc(NC(=O)c2ccccc2NC(=O)Nc2cccc([N+](=O)[O-])c2)cc1`, in data set [1], the IC50 came out at 651 nM.
As for `COc1cccc(-n2nnc(-c3ccccc3NC(=O)Nc3ccc([N+](=O)[O-])cc3)n2)c1`, the IC50 in data set [2] turned out to be 403 nM.
In the case of `COc1ccc(-n2nnc(-c3ccccc3NC(=O)Nc3ccc([N+](=O)[O-])cc3)n2)cc1`, the IC50 was 331 nM in data set [4] and 541 nM in data set [3].
Take `COc1cccc(-n2nnc(-c3ccccc3NC(=O)c3ccc(N=[N+]=[N-])cc3)n2)c1`: the IC50 came out at 1620 nM in data set [1] and 1500 nM in data set [3].
As to `COc1cccc(-n2nnc(-c3ccccc3NC(=O)c3ccc(N)cc3)n2)c1`, the IC50 came to 299 nM in data set [2] and 491 nM in data set [5].
Turning to `O=C(Nc1ccc([N+](=O)[O-])cc1)Nc1ccccc1C(=O)Nc1ccc(C(F)(F)F)cc1`, the IC50 in data set [7] worked out at 711 nM; in data set [2], 452 nM.
Turning to `COc1cccc(-n2nnc(-c3ccccc3NC(=O)Nc3ccc(NC(=O)CBr)cc3)n2)c1`, the IC50 in data set [1] was determined as 798 nM; in data set [4] it was 472 nM.
Regarding `COc1ccc(C(=O)Nc2ccccc2-c2nnn(-c3ccc(OC)cc3)n2)cc1`, the IC50 was 746 nM in data set [1], 505 nM in data set [3] and 492 nM in data set [2].
Take `CCCc1ccc(C(=O)Nc2ccccc2-c2nnn(-c3cccc(OC)c3)n2)cc1`: in data set [2], the IC50 was 131 nM.
`CCCc1ccc(NC(=O)c2ccccc2NC(=O)c2ccc([N+](=O)[O-])cc2)cc1`: the IC50 turned out to be 833 nM in data set [1], 594 nM in data set [4] and 783 nM in data set [3].
Turning to `CCCc1ccc(NC(=O)c2ccccc2NC(=O)Nc2ccc(OC)cc2)cc1`, the results for the IC50 in data set [1] and in data set [4] were 3370 nM and 985 nM, respectively.
Consider `COc1cccc(-n2nnc(-c3ccccc3NC(=O)Nc3ccc(N=C=S)cc3)n2)c1`, for which the IC50 in data set [3] stood at 667 nM.
Regarding `COc1cccc(-n2nnc(-c3ccccc3NC(=O)c3ccc(NC(C)=O)cc3)n2)c1`, the values for the IC50 in data set [1], in data set [2] and in data set [6] were 1360 nM, 1200 nM and 1320 nM, respectively.
Take `CCCc1ccc(NC(=O)c2ccccc2NC(=O)c2ccc(OC)cc2)cc1`: the IC50 in data set [2] was 1660 nM.
Take `COc1cccc(-n2nnc(-c3ccccc3NC(=O)Nc3ccc(NC(C)=O)cc3)n2)c1`: in data set [2], the IC50 was 325 nM.
`COc1ccc2c3c([nH]c2c1)[C@H](C=C(C)C)N1C(=O)[C@@H]2CCCN2C(=O)[C@@H]1C3` [Fumitremorgin C]: the IC50 in data set [1] was determined as 612 nM; in data set [3], 451 nM.
In the case of `COc1cccc(-n2nnc(-c3ccccc3NC(=O)c3cccc([N+](=O)[O-])c3)n2)c1`, in data set [1], the IC50 came to 1800 nM.
As for `CCCc1ccc(NC(=O)c2ccccc2NC(=O)Nc2ccc(Br)cc2)cc1`, the IC50 in data set [1] was 2660 nM; in data set [5] it was 2120 nM.
Regarding `CCCc1ccc(NC(=O)c2ccccc2NC(=O)Nc2ccccc2[N+](=O)[O-])cc1`, the values for the IC50 in data set [4] and in data set [3] were 1120 nM and 2560 nM, respectively.
In the case of `COc1cccc(-n2nnc(-c3ccccc3NC(=O)c3ccc([N+](=O)[O-])cc3)n2)c1`, in data set [1], the IC50 was 585 nM.
For the molecule `COc1cccc(-n2nnc(-c3ccccc3NC(=O)c3ccc(N=C=S)cc3)n2)c1`, the IC50 in data set [3] is 1050 nM and 952 nM.
As for `COc1cccc(-n2nnc(-c3ccccc3NC(=O)Nc3ccc(N=[N+]=[N-])cc3)n2)c1`, the IC50 in data set [1] turned out to be 913 nM.
